The target of this test is T1, ENPP1 (Homo sapiens, UniProt P22413).
T1 sequence (P22413 1-925): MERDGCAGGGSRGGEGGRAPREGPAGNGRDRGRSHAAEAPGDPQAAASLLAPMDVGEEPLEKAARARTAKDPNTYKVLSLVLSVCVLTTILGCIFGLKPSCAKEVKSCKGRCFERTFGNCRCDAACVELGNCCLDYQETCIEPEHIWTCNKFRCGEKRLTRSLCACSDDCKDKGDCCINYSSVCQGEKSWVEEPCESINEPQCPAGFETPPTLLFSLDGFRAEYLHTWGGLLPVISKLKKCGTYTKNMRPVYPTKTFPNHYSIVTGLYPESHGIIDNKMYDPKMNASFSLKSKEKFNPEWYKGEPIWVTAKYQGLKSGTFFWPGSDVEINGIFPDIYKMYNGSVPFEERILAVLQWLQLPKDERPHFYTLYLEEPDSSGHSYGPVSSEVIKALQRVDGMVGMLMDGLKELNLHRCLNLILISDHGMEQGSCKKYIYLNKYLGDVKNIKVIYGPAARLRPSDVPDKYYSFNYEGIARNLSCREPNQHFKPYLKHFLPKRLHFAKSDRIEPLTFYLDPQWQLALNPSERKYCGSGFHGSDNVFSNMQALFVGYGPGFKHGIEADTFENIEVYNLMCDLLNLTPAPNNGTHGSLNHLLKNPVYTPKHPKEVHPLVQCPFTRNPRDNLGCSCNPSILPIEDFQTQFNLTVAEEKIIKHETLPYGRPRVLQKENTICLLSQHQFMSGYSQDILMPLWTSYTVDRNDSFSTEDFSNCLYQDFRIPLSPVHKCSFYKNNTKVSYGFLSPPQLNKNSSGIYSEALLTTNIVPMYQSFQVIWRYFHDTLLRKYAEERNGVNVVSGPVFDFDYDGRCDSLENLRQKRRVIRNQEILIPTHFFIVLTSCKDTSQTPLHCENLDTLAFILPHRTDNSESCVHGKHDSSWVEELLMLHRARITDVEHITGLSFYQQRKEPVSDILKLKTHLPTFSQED
The experiment in a line: Measurement of pNP-TMP hydrolysis by ENPP1. As to conditions: pNP-TMP substrate 500 μM, Km 232 μM; Ki from IC50 by Cheng-Prusoff. The format is biochemical. The method, then: Measurement of pNP-TMP hydrolysis by ENPP1
p-Nitrophenyl thymidine 5′-monophosphate (pNP-TMP) is a synthesized substrate for ENPP1. The ENPP1 enzyme activity assay with pNP-TMP substrate was conducted as follows:
First, in a 60 μl reaction, 7.5 ng purified ENPP1 was mixed with 1.2 μl compounds of Formula (I) (test compound) ranging from 13.7 nM to 10 μM. Incubation of ENPP1 with compounds was set at 25° C. for 10 min. Reactions with DMSO only (with ENPP1 but no compound) gave the fastest reaction (MAX Activity). For each compound dilution, wells with assay buffer (50 mM Tris -HCl, pH8.8, 250 mM NaCl, 0.1 mg/ml BSA) and test compounds but no ENPP1 were included as controls for the subtraction of test compound derived absorbance at 405 nm.
Second, after 10 minutes incubation of ENPP1 and test compound, the assay was initiated by transferring 50 μl of the above mentioned ENPP1/test compound reaction into 50 μl of 1 mM pNP-TMP in assay buffer results in a 100 μl total reaction in non-binding surface clear bottom 96 well plates. Absorbance at 405 nm was recorded immediately in kinetic mode by PerkinElmer 2300 Enspire multimode plate reader.
For each inhibitor, the specific ENPP1 activity was calculated using the following equation: ENPP1 activity (pmol/min/μg)=Adjusted Vmax (OD405 nm/min) X conversion factor (pmol/OD405 nm)/amount of enzyme (μg)
Adjusted Vmax=V0X (Km+(S))/(S). In this assay, Km=232 μM, (S)=500 μM. Adjusted Vmax=1.464 X V0.
V0=(OD405 nm with ENPP1-OD405 nm ENPP1 blank)/minutes. OD405 nm was plotted, with blank subtracted, against time (minutes), the initial linear rate is V0.
The conversion factor (pmol/OD405 nm), was determined by plotting the amount of standard, 4-Nitrophenol (Sigma -Aldrich, Catalog #241326), against absorbance at 405 nm. The slope is the conversion factor. The percent ENPP1 activity for each sample was calculated using the following equation: […]
To determine the IC50 for each compound, compound concentration values and percent enzyme activity values were inserted into GraphPad Prism (GraphPad Prism version 9.0 for Windows, GraphPad Software, La Jolla California USA, www.graphpad.com), and Prism's Transform analysis was used to convert the x-axis values (compound concentration) to logarithms. A sigmoidal variable slope nonlinear regression analysis was performed using the following equation: Y=Bottom+ (Top-Bottom)/(1+10^((Log IC50″X) *HillSlope)).
Ki values for each compound were calculated from the observed IC50 from GraphPad analysis using the Cheng-Prusoff equation: Ki=IC50/(1+(S)/KM). (S) here is 500 μM and KM is determined to be 232 μM.

What is called Ki is the equilibrium dissociation constant of an inhibitor or competing ligand from its target. Compound `CS(=N)(=O)CC1CC2(C1)CN(c1ncnc3c(O)nccc13)C2` (single isomer, unassigned) [Example 2b, ((2-(8-hydroxypyrido[3,4-d]pyrimidin-4-yl)-2-azaspiro[3.3]heptan-6-yl)methyl) (imino)(methyl)-lambda6-sulfanone] had a Ki of 10 to 100 nM.
In turn, `N=[S@](=O)(c1cccc(COc2ccnc3c(OCF)nccc23)c1)C1CC1` (single isomer, unassigned) [Example 42] showed a Ki of 10 to 100 nM.
Turning to `COc1nccc2c(OCc3cc(F)cc([S@](=N)(=O)C4CC4)c3)ccnc12` (single isomer, unassigned) [Example 68], the Ki is < 10 nM.
The value for `COc1nccc2c(OCc3cc(F)cc([S@](C)(=N)=O)c3)ccnc12` (single isomer, unassigned) [Example 70] was 10 to 100 nM.
In the case of `C[S@@](=N)(=O)c1cccc(COc2ccnc3c(OCF)nccc23)c1` (single isomer, unassigned) [Example 78] it was 10 to 100 nM; in that of `CS(=N)(=O)CC1CC2(C1)CN(c1ccnc3cnccc13)C2` (stereo not drawn) [Example 1, imino(methyl) [[2-(1,7-naphthyridin-4-yl)-2-azaspiro[3.3]heptan-6-yl]methyl]-lambda6-sulfanone], < 10 nM.
As to `COc1nccc2c(N3CC(CCCS(C)(=N)=O)C3)ccnc12` (stereo not drawn) [Example 3, imino (3-(1-(8-methoxy-1,7-naphthyridin-4-yl)azetidin-3-yl)propyl)(methyl)-lambda6-sulfanone], the Ki was < 10 nM.
On to `COc1nccc2c(N3CCC(O)(CS(=N)(=O)C4CC4)CC3)ccnc12` (stereo not drawn) [Example 4, cyclopropyl((4-hydroxy-1-(8-methoxy-1,7-naphthyridin-4-yl)piperidin-4-yl)-methyl) (imino)-lambda6-sulfanone], for which the Ki was < 10 nM.
In the case of `CS(=N)(=O)c1ccc(COc2ccnc3cnccc23)cc1` (stereo not drawn) [Example 7] it was 10 to 100 nM.
On to `COc1nccc2c(OCc3cccc([S@](=N)(=O)C4CC4)c3)ccnc12` [Example 17a, (R)-Cyclopropyl(imino)(3-(((8-methoxy-1,7-naphthyridin-4-yl)oxy)methyl)phenyl)-lambda6-sulfanone], for which the inhibitory constant (Ki) fell in the range of 10 to 100 nM.
With `COc1nccc2c(N3CCC4(C3)CN(S(C)(=N)=O)C4)ccnc12` (stereo not drawn) [Example 44, 8-methoxy-4-(2-(S-methylsulfonimidoyl)-2,6-diazaspiro(3.4)octan-6-yl)-1,7-naphthyridine], the Ki is < 10 nM.
Turning to `COc1nccc2c(N3CC4(CCN(S(C)(=N)=O)C4)C3)ccnc12` (stereo not drawn) [Example 45, 8-methoxy-4-(6-(S-methylsulfonimidoyl)-2,6-diazaspiro(3.4)octan-2-yl)-1,7-naphthyridine], the Ki is < 10 nM.
As to `CCOc1nccc2c(N3CCC(O)(CS(C)(=N)=O)CC3)ccnc12` (stereo not drawn) [Example 46, ((1-(8-ethoxy-1,7-naphthyridin-4-yl)-4-hydroxypiperidin-4-yl)methyl) (imino)-(methyl)-lambda6-sulfanone], the Ki is < 10 nM.
As for `COc1nccc2c(Oc3ccc(S(C)(=N)=O)cc3)ccnc12` (stereo not drawn) [Example 50, imino (4-((8-methoxy-1,7-naphthyridin-4-yl)oxy)phenyl)(methyl)-lambda6-sulfanone], the Ki is < 10 nM.
As to `COc1nccc2c(Oc3cccc(S(C)(=N)=O)c3)ccnc12` (stereo not drawn) [Example 51, imino (3-((8-methoxy-1,7-naphthyridin-4-yl)oxy)phenyl)(methyl)-lambda6-sulfanone], the Ki was in the range of 100 to 10000 nM.
As for `CS(=N)(=O)CC1(O)CCN(c2ccnc3c(OC4CC4)nccc23)CC1` (stereo not drawn) [Example 52, ((1-(8-cyclopropoxy-1,7-naphthyridin-4-yl)-4-hydroxypiperidin-4-yl)methyl) (imino)(methyl)-lambda6-sulfanone], the inhibitory constant (Ki) is 10 to 100 nM.
In the case of `CN=S(C)(=O)N1CCC2(CCN(c3ccnc4c(OC)nccc34)C2)CC1` (stereo not drawn) [Example 53, ((2-(8-methoxy-1,7-naphthyridin-4-yl)-2,8-diazaspiro(4.5)decan-8-yl)(methyl)oxo-lambda6-sulfanylidene)(methyl)amine] it was 100 to 10000 nM.
Consider `CN=S(C)(=O)N1CCC2(CCN(c3ccnc4c(OC)nccc34)C2)C1` (stereo not drawn) [Example 54, ((7-(8-methoxy-1,7-naphthyridin-4-yl)-2,7-diazaspiro(4.4)nonan-2-yl)(methyl)oxo-lambda6-sulfanylidene)(methyl)amine], for which the Ki is 100 to 10000 nM.
For the compound `CN=S(=O)(c1cccc(COc2ccnc3c(OC)nccc23)c1)C1CC1` (stereo not drawn) [Example 55, cyclopropyl(3-(((8-methoxy-1,7-naphthyridin-4-yl)oxy)methyl)phenyl)(methylimino)-lambda6-sulfanone], the Ki lay within 100 to 10000 nM.
As for `CN=S(=O)(c1cccc(COc2ncnc3c(OC)nccc23)c1)C1CC1` (stereo not drawn) [Example 56, cyclopropyl(3-(((8-methoxypyrido[3,4-d]pyrimidin-4-yl)oxy)methyl)phenyl)-(methylimino)-lambda6-sulfanone], the Ki was in the range of 100 to 10000 nM.
In the case of `CN=S(C)(=O)CC1(O)CCN(c2ccnc3c(OC)nccc23)CC1` (stereo not drawn) [Example 57, ((4-hydroxy-1-(8-methoxy-1,7-naphthyridin-4-yl)piperidin-4-yl)methyl)(methyl)-(methylimino)-lambda6-sulfanone] it was < 10 nM; in that of `CN=S(C)(=O)CC1CC2(C1)CN(c1ccnc3c(OC)nccc13)C2` (stereo not drawn) [Example 58, ((2-(8-methoxy-1,7-naphthyridin-4-yl)-2-azaspiro(3.3)heptan-6-yl)methyl-methyl)(methylimino)-lambda6-sulfanone], 100 to 10000 nM; in that of `COc1nccc2c(OCc3cc(S(=N)(=O)C4CC4)ccc3F)ccnc12` (stereo not drawn) [Example 59, cyclopropyl(4-fluoro-3-(((8-methoxy-1,7-naphthyridin-4-yl)oxy)methyl)-phenyl) (imino)-lambda6-sulfanone], < 10 nM.
The compound `N=S(=O)(c1cccc(COc2ccnc3c(OC4CC4)nccc23)c1)C1CC1` (stereo not drawn) [Example 60, (3-(((8-cyclopropoxy-1,7-naphthyridin-4-yl)oxy)methyl)phenyl)-(cyclopropyl) (imino)-lambda6-sulfanone] had a Ki of 100 to 10000 nM.
In the case of `CC(C)Oc1nccc2c(OCc3cccc(S(=N)(=O)C4CC4)c3)ccnc12` (stereo not drawn) [Example 61, cyclopropyl(imino) (3-(((8-isopropoxy-1,7-naphthyridin-4-yl)oxy)methyl)phenyl)-lambda6-sulfanone] it was 100 to 10000 nM.
The compound `CCCOc1nccc2c(OCc3cccc(S(=N)(=O)C4CC4)c3)ccnc12` (stereo not drawn) [Example 62, cyclopropyl(imino) (3-(((8-propoxy-1,7-naphthyridin-4-yl)oxy)methyl)phenyl)-lambda6-sulfanone] yielded a Ki of 100 to 10000 nM.
As to `CS(=N)(=O)CCC1(O)CCN(c2ccnc3c(OCF)nccc23)CC1` (stereo not drawn) [Example 63, (2-(1-(8-(fluoromethoxy)-1,7-naphthyridin-4-yl)-4-hydroxypiperidin-4-yl)ethyl)-(imino)(methyl)-lambda6-sulfanone], the Ki fell in the range of 10 to 100 nM.

These data come from patent US20250320204A1 (RIBOSCIENCE LLC, priority 2023, published 2025).
